Patent publication US10626125B2, “1,1,1-trifluoro-3-hydroxypropan-2-yl carbamate derivatives as MAGL inhibitors” (PFIZER INC., priority 2017, dated 2020)
Read-outs that look alike come from different tables or passages of the source.

What was measured:
[1] = target: T1, human recombinant Monoacylglycerol Lipase (Homo sapiens, UniProt Q99685); experiment: MAGL enzymatic assay (IC50; 7-HCA substrate added at T=0 min or T=30 min); assay type: biochemical; settings: geometric mean of 2-5 determinations unless otherwise indicated
T1 sequence (Q99685 1-303): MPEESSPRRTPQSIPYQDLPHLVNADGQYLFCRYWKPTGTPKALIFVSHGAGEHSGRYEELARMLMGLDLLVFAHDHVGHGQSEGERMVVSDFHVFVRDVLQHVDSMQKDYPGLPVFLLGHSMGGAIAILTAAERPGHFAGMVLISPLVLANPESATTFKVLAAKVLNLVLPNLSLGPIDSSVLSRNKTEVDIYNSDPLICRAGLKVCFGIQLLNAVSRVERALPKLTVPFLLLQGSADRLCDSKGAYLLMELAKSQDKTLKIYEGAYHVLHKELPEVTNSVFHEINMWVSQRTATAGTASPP

[2] = target: T1, human recombinant Monoacylglycerol Lipase; experiment: MAGL inactivation (kinact/KI from enzyme progress curves, T=0 min protocol); settings: from plot of Kobs vs. compound concentration, geometric mean of 2-5 determinations (b: ≥6)
[3] = MAGL (T = 30 min) IC50, substrate 7-HCA added after 30 minute incubation (T=30 min)
[4] = substrate 7-HCA added immediately (T=0 min), read-out: MAGL (T = 0 min) IC50

IC50 [1, 3] [nM]	IC50 [1, 4] [nM]	MAGL kinact/KI [2]	Compound
4	33	8060 1/s per M	N#Cc1ccc(C2COC3(CCN(C(=O)O[C@H](CO)C(F)(F)F)CC3)C2)cc1 (single isomer, unassigned) [Example 31]
24	200	1610 1/s per M	N#Cc1ccc(C2COC3(CCN(C(=O)O[C@H](CO)C(F)(F)F)CC3)C2)nc1 (single isomer, unassigned) [Example 38]
1	9	63200 1/s per M	CN(C1CC2(CCN(C(=O)O[C@H](CO)C(F)(F)F)CC2)C1)S(=O)(=O)c1ccccc1 [Example 45, (2R)-1,1,1-trifluoro-3-hydroxypropan-2-yl 2-[methyl(phenylsulfonyl)amino]-7-azaspiro[3.5]nonane-7-carboxylate]
3	29	17800 1/s per M	N#Cc1cccc(C2COC3(CCN(C(=O)O[C@H](CO)C(F)(F)F)CC3)C2)c1F (single isomer, unassigned) [Example 71]
4	48	7920 1/s per M	O=C(O[C@H](CO)C(F)(F)F)N1CCC2(CC1)CC(c1ccc(F)cc1)CO2 (single isomer, unassigned) [Example 34]
7	47	10300 1/s per M	O=C(O[C@H](CO)C(F)(F)F)N1CCC2(CC1)CC(Cn1cc(C(F)(F)F)cn1)CO2 (single isomer, unassigned) [Example 3]
3	17	22800 1/s per M	N#Cc1ccc([C@H]2COC3(CCN(C(=O)O[C@H](CO)C(F)(F)F)CC3)C2)cc1F [Example 27, (2R)-1,1,1-trifluoro-3-hydroxypropan-2-yl (3S)-3-(4-cyano-3-fluorophenyl)-1-oxa-8-azaspiro[4.5]decane-8-carboxylate]
4	45	20400 1/s per M	O=C(O[C@H](CO)C(F)(F)F)N1CCC2(CC1)CC(c1ccccn1)C2 [Example 81, (2R)-1,1,1-trifluoro-3-hydroxypropan-2-yl 2-(pyridin-2-yl)-7-azaspiro[3.5]nonane-7-carboxylate]
0.4	5	233000 1/s per M	O=C(O[C@H](CO)C(F)(F)F)N1CCC2(CC1)CC(c1c(F)cccc1F)CO2 (single isomer, unassigned) [Example 32]
1	9	66900 1/s per M	O=C(O[C@H](CO)C(F)(F)F)N1CCC2(CC1)CC(n1ccc(C(F)(F)F)n1)CO2 (single isomer, unassigned) [Example 53]
4	32	17000 1/s per M	N#Cc1ccc(C2COC3(CCN(C(=O)O[C@H](CO)C(F)(F)F)CC3)C2)c(F)c1 (single isomer, unassigned) [Example 72]
3	9	21800 1/s per M	O=C(O[C@H](CO)C(F)(F)F)N1CCC2(CC1)CC(c1ccc(C(F)(F)F)cn1)CO2 (single isomer, unassigned) [Example 40]
2	14	60600 1/s per M	O=C(O[C@H](CO)C(F)(F)F)N1CCC2(CC1)CC(c1ccc(C(F)(F)F)nc1)C2 [Example 67, (2R)-1,1,1-trifluoro-3-hydroxypropan-2-yl 2-[6-(trifluoromethyl)pyridin-3-yl]-7-azaspiro[3.5]nonane-7-carboxylate]
2	18	26000 1/s per M	O=C(O[C@H](CO)C(F)(F)F)N1CCC2(CC1)CC(c1ccc(C(F)F)cn1)C2 [Example 48, (2R)-1,1,1-trifluoro-3-hydroxypropan-2-yl 2-[5-(difluoromethyl)pyridin-2-yl]-7-azaspiro[3.5]nonane-7-carboxylate]
1	16	33000 1/s per M	O=C(O[C@H](CO)C(F)(F)F)N1CCC2(CC1)CC(Oc1ccc(F)cn1)C2 [Example 88, (2R)-1,1,1-trifluoro-3-hydroxypropan-2-yl 2-[(5-fluoropyridin-2-yl)oxy]-7-azaspiro[3.5]nonane-7-carboxylate]
13	113	2770 1/s per M	CN([C@H]1COC2(CCN(C(=O)O[C@H](CO)C(F)(F)F)CC2)C1)S(=O)(=O)CC1CC(F)(F)C1 [Example 57, (2R)-1,1,1-trifluoro-3-hydroxypropan-2-yl (3R)-3-[{[(3,3-difluorocyclobutyl)methyl]sulfonyl}(methyl)amino]-1-oxa-8-azaspiro[4.5]decane-8-carboxylate]
6	69	7140 1/s per M	O=C(O[C@H](CO)C(F)(F)F)N1CCC2(CCC(c3ccc(F)cn3)CO2)CC1 (single isomer, unassigned) [Example 74]
4	44	10600 1/s per M	Cc1nn(C2CC3(CCN(C(=O)O[C@H](CO)C(F)(F)F)CC3)C2)c(C)c1C [Example 65, (2R)-1,1,1-trifluoro-3-hydroxypropan-2-yl 2-(3,4,5-trimethyl-1H-pyrazol-1-yl)-7-azaspiro[3.5]nonane-7-carboxylate]
2	24	19300 1/s per M	O=C(O[C@H](CO)C(F)(F)F)N1CCC2(CC1)CC(c1ccc(C(F)F)nc1)C2 [Example 82, (2R)-1,1,1-trifluoro-3-hydroxypropan-2-yl 2-[6-(difluoromethyl)pyridin-3-yl]-7-azaspiro[3.5]nonane-7-carboxylate]
0.3	2	267000 1/s per M	O=C(O[C@H](CO)C(F)(F)F)N1CCC2(CC1)CC(Oc1cccc(C(F)F)c1)C2 [Example 60, (2R)-1,1,1-trifluoro-3-hydroxypropan-2-yl 2-[3-(difluoromethyl)phenoxy]-7-azaspiro[3.5]nonane-7-carboxylate]
0.3	4	128000 1/s per M	O=C(O[C@H](CO)C(F)(F)F)N1CCC2(CC1)CC(Oc1cccc(F)c1)C2 [Example 51, (2R)-1,1,1-trifluoro-3-hydroxypropan-2-yl 2-(3-fluorophenoxy)-7-azaspiro[3.5]nonane-7-carboxylate]
1	4	167000 1/s per M	N#Cc1cccc(C2CC3(CCN(C(=O)O[C@H](CO)C(F)(F)F)CC3)C2)c1 [Example 46, (2R)-1,1,1-trifluoro-3-hydroxypropan-2-yl 2-(3-cyanophenyl)-7-azaspiro[3.5]nonane-7-carboxylate]
0.5	9	71700 1/s per M	O=C(O[C@H](CO)C(F)(F)F)N1CCC2(CC1)CC(Oc1cccc(C(F)F)n1)C2 [Example 90, (2R)-1,1,1-trifluoro-3-hydroxypropan-2-yl 2-{[6-(difluoromethyl)pyridin-2-yl]oxy}-7-azaspiro[3.5]nonane-7-carboxylate]
4	49	9780 1/s per M	O=C(O[C@H](CO)C(F)(F)F)N1CCC2(CC1)CC(n1cc(Cl)cn1)CO2 (single isomer, unassigned) [Example 22]
0.8	8	31900 1/s per M	O=C(O[C@H](CO)C(F)(F)F)N1CCC2(CC1)CC(Oc1cc(C(F)F)ccn1)C2 [Example 89, (2R)-1,1,1-trifluoro-3-hydroxypropan-2-yl 2-{[4-(difluoromethyl)pyridin-2-yl]oxy}-7-azaspiro[3.5]nonane-7-carboxylate]
0.7	9	50100 1/s per M	N#Cc1cccc(OC2CC3(CCN(C(=O)O[C@H](CO)C(F)(F)F)CC3)C2)c1 [Example 86, (2R)-1,1,1-trifluoro-3-hydroxypropan-2-yl 2-(3-cyanophenoxy)-7-azaspiro[3.5]nonane-7-carboxylate]
3	16	32800 1/s per M	O=C(O[C@H](CO)C(F)(F)F)N1CCC2(CC1)CC(n1cc(C(F)(F)F)cn1)CO2 (single isomer, unassigned) [Example 9]
12	115	7840 1/s per M	Cc1cnn(C2COC3(CCN(C(=O)O[C@H](CO)C(F)(F)F)CC3)C2)c1 (single isomer, unassigned) [Example 24]

Compound	IC50 [1, 3] [nM]	IC50 [1, 4] [nM]	MAGL kinact/KI [2]
CN(C(=O)C1CCCC1)[C@H]1COC2(CCN(C(=O)O[C@H](CO)C(F)(F)F)CC2)C1 [Example 5, (2R)-1,1,1-Trifluoro-3-hydroxypropan-2-yl (3R)-3-[(cyclopentylcarbonyl)(methyl)amino]-1-oxa-8-azaspiro[4.5]decane-8-carboxylate]	7	67	5530 1/s per M
CN([C@H]1COC2(CCN(C(=O)O[C@H](CO)C(F)(F)F)CC2)C1)S(=O)(=O)C(C)(C)C [Example 6, (2R)-1,1,1-Trifluoro-3-hydroxypropan-2-yl (3R)-3-[(tert-butylsulfonyl)(methyl)amino]-1-oxa-8-azaspiro[4.5]decane-8-carboxylate]	8	98	6630^b 1/s per M
